Laboratory results published in ChEMBL document CHEMBL1137818, “Structure and spasmolytic activity of eucalyptanoic acid from Eucalyptus camaldulensis var. obtusa and synthesis of its active derivative from oleanolic acid” (2002).

Key:
[1] = system: Jejunum; assay: Spasmolytic activity in rabbit jejunum assessed as inhibition of calcium influx-mediated spontaneous muscle contraction at 1 mg/mL after 30 mins; assay type: functional; conditions: Oryctolagus cuniculus, 0.5 h
[2] = system: Jejunum; assay: Spasmolytic activity in rabbit jejunum assessed as inhibition of K+-induced muscle contraction at 1 mg/mL after 30 mins; assay type: functional; conditions: Oryctolagus cuniculus, 0.5 h

Row | Compound | inhibition at 1000 µg/mL [1] [%] | inhibition at 1000 µg/mL [2] [%]
1 | COC(=O)[C@]12CCC(C)(C)C[C@@H]1C1=CC=C3[C@@]4(C)CC[C@H](OC(C)=O)C(C)(C)[C@@H]4CC[C@@]3(C)[C@]1(C)CC2 [METHYLACETYLEUCALYPTANOATE] | 95.3 | 85.9
2 | CC1(C)CC[C@]2(C(=O)O)CC[C@]3(C)C(=CC=C4[C@@]5(C)CC[C@H](O)C(C)(C)[C@@H]5CC[C@]43C)[C@H]2C1 [EUCALYPTANOIC ACID] | 58.2 | 31.1
3 | COC(=O)[C@]12CCC(C)(C)C[C@@H]1C1=CC[C@@H]3[C@@]4(C)CC[C@H](OC(C)=O)C(C)(C)[C@@H]4CC[C@@]3(C)[C@]1(C)CC2 [METHYL ACETYL OLEANOLATE] | 67.7 | 35.5
